Assay [1] has as its system beet armyworm (BAW; Spodoptera exigua: Lepidoptera). As to the kind of experiment: 96-well microtiter plate-based high throughput (HTS) diet bioassay on beet armyworm (BAW HTS). Format: in vivo. Conditions: BAW eggs, 12 μg test compound per well, mortality at 6 d post-treatment, mortality class; for pest or weed control at 12 µg/well, 12 µg/well: Spodoptera exigua, 144 h, read-out: BAW HTS. A digest of the protocol: (§1)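 Percent larval mortality after six days was the endpoint. Higher-throughput plates used eggs, 12 μg compound per well and 29° C darkness; trays used second instar larvae, a 50 μg/cm^2 dose and 25° C with 14:10 light cycle.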

Assay [2] has the same test system. Kind of assay: 128-well diet tray assay on beet armyworm (BAW 50). Format: in vivo. Conditions: 128-well diet tray assay, second instar BAW larvae, mortality class; for BAW 50 ug/cm2: 50 μg/cm^2 of test compound on diet; for pest or weed control at 50 µg/cm2, 50 µg/cm2: Spodoptera exigua, 144 h, 50 μg/cm2 of test compound on diet, read-out: BAW 50 ug/cm2. In outline:
as §1

Setting [3] is: 96-well microtiter plate HTS diet assay.

Turning to `COC1C(C)OC(ON=Cc2ccc(-c3nn(-c4ccc(F)cc4F)c(=O)[nH]3)cc2)C(OC)C1OC` (stereo not drawn) [Compound 100], the “BAW HTS” value in assay [1] (96-well HTS diet bioassay) is “B (either (1) the compound was tested and less than 50 percent mortality was observed or (2) the compound was not tested)”; in assay [1] (setting [3]), “B (either (1) the compound was tested and less than 50 percent mortality was observed or (2) the compound was not tested)”. For the same compound, in assay [2], the “BAW 50 ug/cm2” value was “A (the compound was tested and at least 50 percent mortality was observed)”.
Take `COC1C(C)OC(ON=Cc2ccc(-c3nn(-c4ccc(OC(F)(F)F)cc4)c(=O)[nH]3)cc2)C(OC)C1OC` (stereo not drawn) [Compound 101]: the “BAW HTS” value is “B (either (1) the compound was tested and less than 50 percent mortality was observed or (2) the compound was not tested)” in assay [1] (96-well HTS diet bioassay); “B (either (1) the compound was tested and less than 50 percent mortality was observed or (2) the compound was not tested)” in assay [1] (setting [3]). Also, the “BAW 50 ug/cm2” value in assay [2] was “A (the compound was tested and at least 50 percent mortality was observed)”.
With `COC1C(C)OC(ON=Cc2ccc(-c3ncn(-c4ccc(Br)cc4)n3)cc2)C(OC)C1OC` (stereo not drawn) [Compound 102], the “BAW HTS” value in assay [1] (96-well HTS diet bioassay) was “B (either (1) the compound was tested and less than 50 percent mortality was observed or (2) the compound was not tested)”; in assay [1] (setting [3]) it was “B (either (1) the compound was tested and less than 50 percent mortality was observed or (2) the compound was not tested)”. Besides, in assay [2], the “BAW 50 ug/cm2” value was “B (either (1) the compound was tested and less than 50 percent mortality was observed or (2) the compound was not tested)”.
With `CO[C@@H]1[C@@H](OC)[C@H](C)O[C@@H](ON=Cc2ccc(-c3ncn(-c4ccc([S+]([O-])C(F)(F)F)cc4)n3)cc2)[C@@H]1OC` (stereo partly drawn) [Compound 103, 4-[1-(4-trifluoromethanesulfinylphenyl)-1H-[1,2,4]triazol-3-yl]-benzaldehyde O-((2S,3R,4R,5S,6S)-3,4,5-trimethoxy-6-methyl-tetrahydropyran-2-yl)-oxime], the “BAW HTS” value in assay [1] (setting [3]) is “B (either (1) the compound was tested and less than 50 percent mortality was observed or (2) the compound was not tested)”. The pest or weed control at 12 µg/well, 12 µg/well in assay [1] (96-well HTS diet bioassay) was < 50%. Besides, in assay [2], the “BAW 50 ug/cm2” value was “A (the compound was tested and at least 50 percent mortality was observed)”; the pest or weed control at 50 µg/cm2, 50 µg/cm2 is > 50%.
Turning to `CO[C@@H]1[C@@H](OC)[C@H](C)O[C@@H](ON=Cc2ccc(-c3ncn(-c4ccc(S(=O)(=O)C(F)(F)F)cc4)n3)cc2)[C@@H]1OC` [Compound 104, 4-[1-(4-trifluoromethanesulfonylphenyl)-1H-[1,2,4]triazol-3-yl]-benzaldehyde O-((2S,3R,4R,5S,6S)-3,4,5-trimethoxy-6-methyl-tetrahydropyran-2-yl)-oxime], in assay [1] (setting [3]), the “BAW HTS” value is “B (either (1) the compound was tested and less than 50 percent mortality was observed or (2) the compound was not tested)”. Also, in assay [1] (96-well HTS diet bioassay), the pest or weed control at 12 µg/well, 12 µg/well was < 50%. For the same compound, in assay [2], the “BAW 50 ug/cm2” value is “A (the compound was tested and at least 50 percent mortality was observed)”; the pest or weed control at 50 µg/cm2, 50 µg/cm2 was > 50%.
In the case of `COC1C(C)OC(ON=Cc2ccc(-c3ncn(-c4ccc(SC(F)(F)C(F)(F)F)cc4)n3)cc2)C(OC)C1OC` (stereo not drawn) [Compound 105], the “BAW HTS” value was “B (either (1) the compound was tested and less than 50 percent mortality was observed or (2) the compound was not tested)” in assay [1] (96-well HTS diet bioassay); “B (either (1) the compound was tested and less than 50 percent mortality was observed or (2) the compound was not tested)” in assay [1] (setting [3]). Further, in assay [2], the “BAW 50 ug/cm2” value was “A (the compound was tested and at least 50 percent mortality was observed)”.
Turning to `CCCOC1C(OC)C(C)OC(ON=Cc2ccc(-c3ncn(-c4ccc(OC(F)(F)C(F)(F)F)cc4)n3)cc2)C1OC` (stereo not drawn) [Compound 106], the “BAW HTS” value in assay [1] (96-well HTS diet bioassay) is “B (either (1) the compound was tested and less than 50 percent mortality was observed or (2) the compound was not tested)”; in assay [1] (setting [3]), “B (either (1) the compound was tested and less than 50 percent mortality was observed or (2) the compound was not tested)”. Moreover, in assay [2], the “BAW 50 ug/cm2” value is “A (the compound was tested and at least 50 percent mortality was observed)”.
Consider `CCCOC1C(OC)C(C)OC(ON=Cc2ccc(-c3ncn(-c4ccc(C(F)(F)F)cc4)n3)cc2)C1OC` (stereo not drawn) [Compound 107], for which the “BAW HTS” value in assay [1] (96-well HTS diet bioassay) was “A (the compound was tested and at least 50 percent mortality was observed)”; in assay [1] (setting [3]), “A (the compound was tested and at least 50 percent mortality was observed)”. Also, the “BAW 50 ug/cm2” value in assay [2] was “A (the compound was tested and at least 50 percent mortality was observed)”.
For the compound `CCCOC1C(OC)C(C)OC(ON=Cc2ccc(-c3ncn(-c4ccc(C(F)(F)C(F)(F)F)cc4)n3)cc2)C1OC` (stereo not drawn) [Compound 108], the “BAW HTS” value is “B (either (1) the compound was tested and less than 50 percent mortality was observed or (2) the compound was not tested)” in assay [1] (96-well HTS diet bioassay); “B (either (1) the compound was tested and less than 50 percent mortality was observed or (2) the compound was not tested)” in assay [1] (setting [3]). In assay [2], the “BAW 50 ug/cm2” value was “A (the compound was tested and at least 50 percent mortality was observed)”.
In the case of `CCCCOC1C(OC)C(C)OC(ON=Cc2ccc(-c3ncn(-c4ccc(OC(F)(F)C(F)(F)F)cc4)n3)cc2)C1OC` (stereo not drawn) [Compound 109], the “BAW HTS” value is “A (the compound was tested and at least 50 percent mortality was observed)” in assay [1] (96-well HTS diet bioassay); “A (the compound was tested and at least 50 percent mortality was observed)” in assay [1] (setting [3]). The “BAW 50 ug/cm2” value in assay [2] is “A (the compound was tested and at least 50 percent mortality was observed)”.
For `CCCOC1C(OC)C(C)OC(ON=Cc2ccc(-c3ncn(-c4ccc(C(F)(F)C(F)(F)C(F)(F)F)cc4)n3)cc2)C1OC` (stereo not drawn) [Compound 110], the “BAW HTS” value in assay [1] (96-well HTS diet bioassay) was “B (either (1) the compound was tested and less than 50 percent mortality was observed or (2) the compound was not tested)”; in assay [1] (setting [3]), “B (either (1) the compound was tested and less than 50 percent mortality was observed or (2) the compound was not tested)”. In assay [2], the “BAW 50 ug/cm2” value was “A (the compound was tested and at least 50 percent mortality was observed)”.
With `CCOC1C(OC)C(C)OC(ON=Cc2ccc(-c3ncn(-c4ccc(OS(=O)(=O)C(F)(F)F)cc4)n3)cc2)C1OC` (stereo not drawn) [Compound 112], the “BAW HTS” value was “B (either (1) the compound was tested and less than 50 percent mortality was observed or (2) the compound was not tested)” in assay [1] (96-well HTS diet bioassay); “B (either (1) the compound was tested and less than 50 percent mortality was observed or (2) the compound was not tested)” in assay [1] (setting [3]). In assay [2], the “BAW 50 ug/cm2” value was “A (the compound was tested and at least 50 percent mortality was observed)”.
On to `CCCO[C@@H]1[C@@H](OC)[C@@H](OC)[C@H](O/N=C/c2ccc(-c3ncn(-c4ccc(OC(F)(F)C(F)(F)F)cc4)n3)cc2)O[C@H]1C` [Compound 113, 4-[1-(4-pentafluoroethyloxy-phenyl)-1H-[1,2,4]triazol-3-yl]-benzaldehyde, O-((2S,3R,4R,5S,6S)-3,4-dimethoxy-6-methyl-5-propoxy-tetrahydropyran-2-yl)-oxime], for which the “BAW HTS” value in assay [1] (setting [3]) is “B (either (1) the compound was tested and less than 50 percent mortality was observed or (2) the compound was not tested)”. Besides, in assay [1] (96-well HTS diet bioassay), the pest or weed control at 12 µg/well, 12 µg/well is < 50%. In assay [2], the “BAW 50 ug/cm2” value was “A (the compound was tested and at least 50 percent mortality was observed)”; the pest or weed control at 50 µg/cm2, 50 µg/cm2 is > 50%.
Turning to `CCOC1C(OC)C(C)OC(ON=Cc2ccc(-c3ncn(-c4ccc(C(F)(F)F)cc4Cl)n3)cc2)C1OC` (stereo not drawn) [Compound 115], the “BAW HTS” value in assay [1] (96-well HTS diet bioassay) was “B (either (1) the compound was tested and less than 50 percent mortality was observed or (2) the compound was not tested)”; in assay [1] (setting [3]), “B (either (1) the compound was tested and less than 50 percent mortality was observed or (2) the compound was not tested)”. In assay [2], the “BAW 50 ug/cm2” value was “A (the compound was tested and at least 50 percent mortality was observed)”.
`CCOC1C(OC)C(C)OC(ON=Cc2ccc(-c3ncn(-c4ccc(C(F)(F)F)cn4)n3)cc2)C1OC` (stereo not drawn) [Compound 116]: the “BAW HTS” value is “B (either (1) the compound was tested and less than 50 percent mortality was observed or (2) the compound was not tested)” in assay [1] (96-well HTS diet bioassay); “B (either (1) the compound was tested and less than 50 percent mortality was observed or (2) the compound was not tested)” in assay [1] (setting [3]). Further, in assay [2], the “BAW 50 ug/cm2” value is “A (the compound was tested and at least 50 percent mortality was observed)”.
For `CCOC1C(OC)C(C)OC(ON=Cc2ccc(-c3ncn(-c4ccc(Cl)nn4)n3)cc2)C1OC` (stereo not drawn) [Compound 117], the “BAW HTS” value in assay [1] (96-well HTS diet bioassay) is “B (either (1) the compound was tested and less than 50 percent mortality was observed or (2) the compound was not tested)”; in assay [1] (setting [3]) it was “B (either (1) the compound was tested and less than 50 percent mortality was observed or (2) the compound was not tested)”. Further, in assay [2], the “BAW 50 ug/cm2” value is “B (either (1) the compound was tested and less than 50 percent mortality was observed or (2) the compound was not tested)”.
Turning to `CCCOC1C(OC)C(C)OC(ON=Cc2ccc(-c3ncn(-c4ccc(C(F)(F)F)cn4)n3)cc2)C1OC` (stereo not drawn) [Compound 118], the “BAW HTS” value in assay [1] (96-well HTS diet bioassay) was “B (either (1) the compound was tested and less than 50 percent mortality was observed or (2) the compound was not tested)”; in assay [1] (setting [3]), “B (either (1) the compound was tested and less than 50 percent mortality was observed or (2) the compound was not tested)”. The “BAW 50 ug/cm2” value in assay [2] was “A (the compound was tested and at least 50 percent mortality was observed)”.

(Values after US8178658B2 (Dow AgroSciences, LLC, priority 2008, dated 2012).)
